Assay results: patent US20230407098A1, “METHOD FOR EVALUATING CYSTINE UPTAKE ABILITY OF CELL, KIT FOR EVALUATING CYSTINE UPTAKE ABILITY OF CELL, METHOD FOR DETERMINING SELENOCYSTEINE, AND KIT FOR DETERMINING SELENOCYSTEINE” (DOJINDO LABORATORIES, priority 2021, published 2023)

What was measured:
cystine transporter = target: T1, cystine transporter (Homo sapiens, UniProt Q9UPY5); assay: Inhibition of selenocystine uptake by cystine transporter inhibitor; format: cell-based; conditions: HeLa cells, with cystine transporter inhibitor (sulfasalazine or erastin); FIG. 3
T1 construct: endogenous in cells; host or cells: HeLa cells
T1 sequence (Q9UPY5 1-501): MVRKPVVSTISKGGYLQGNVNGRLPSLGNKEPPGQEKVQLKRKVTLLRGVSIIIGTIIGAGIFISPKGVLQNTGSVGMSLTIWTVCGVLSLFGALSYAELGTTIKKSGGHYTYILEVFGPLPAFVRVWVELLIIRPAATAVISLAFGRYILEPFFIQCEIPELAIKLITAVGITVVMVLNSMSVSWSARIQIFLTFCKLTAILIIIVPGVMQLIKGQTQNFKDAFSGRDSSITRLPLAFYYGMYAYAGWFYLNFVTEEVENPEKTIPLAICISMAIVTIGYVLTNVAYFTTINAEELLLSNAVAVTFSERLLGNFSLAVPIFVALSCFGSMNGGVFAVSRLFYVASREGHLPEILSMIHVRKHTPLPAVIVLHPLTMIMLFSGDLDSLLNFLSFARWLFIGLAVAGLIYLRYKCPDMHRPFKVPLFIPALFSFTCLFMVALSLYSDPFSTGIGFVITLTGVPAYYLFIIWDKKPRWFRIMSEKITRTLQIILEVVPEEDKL
T1 sequence (P08195 1-529 partner): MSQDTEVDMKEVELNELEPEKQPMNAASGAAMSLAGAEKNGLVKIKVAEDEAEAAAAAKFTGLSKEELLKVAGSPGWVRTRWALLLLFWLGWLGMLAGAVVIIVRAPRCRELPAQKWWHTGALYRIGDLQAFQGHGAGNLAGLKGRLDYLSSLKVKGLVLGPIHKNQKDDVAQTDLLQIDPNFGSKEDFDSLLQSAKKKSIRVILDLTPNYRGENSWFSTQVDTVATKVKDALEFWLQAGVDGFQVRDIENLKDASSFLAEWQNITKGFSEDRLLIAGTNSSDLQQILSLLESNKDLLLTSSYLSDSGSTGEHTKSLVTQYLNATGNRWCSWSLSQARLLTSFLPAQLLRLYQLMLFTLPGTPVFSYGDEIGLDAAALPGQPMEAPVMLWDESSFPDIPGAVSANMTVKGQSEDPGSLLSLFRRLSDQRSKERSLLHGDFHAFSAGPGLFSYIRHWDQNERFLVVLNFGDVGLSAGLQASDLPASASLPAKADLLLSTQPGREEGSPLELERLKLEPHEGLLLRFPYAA
Method: DMEM (cystine-free) containing a cystine transporter inhibitor (sulfasalazine or erastin) was added to HeLa cells, and the cells were incubated in the CO2 incubator (37° C.) for 5 minutes. DMEM (cystine-free) containing 200 μM selenocystine was then added, and the cells were incubated in the CO2 incubator (37° C.) for 30 minutes. After removing the supernatant, the cells were washed with PBS three times and lysed with methanol. Then, 100 mM MES at a pH of 6 containing 10 μM FOdA and 200 μM TCEP was added, and the cells were incubated at 37° C. for 30 minutes. The fluorescence intensity of each solution was then measured with a plate reader (Infinite(R) 200 PRO, excitation wavelength: 485 nm, fluorescence wavelength: 535 nm).

HeLa cells = assay: Ability to take selenocystine into cells (FOdA/TCEP fluorescence measurement); format: cell-based, human; conditions: selenocystine at concentrations in cystine-free DMEM, 30 minutes, FIG. 2
Method: DMEM (cystine-free) was added to HeLa cells, and the cells were incubated in a CO2 incubator (37° C.) for 5 minutes. After the removal of the supernatant, DMEM (cystine-free) containing selenocystine at concentrations was added, and the cells were incubated in the CO 2 incubator (37° C.) for 30 minutes. After removing the supernatant, the cells were washed with PBS three times and then lysed with methanol. Then, 100 mM MES at a pH of 6 containing 10 μM FOdA and 200 μM TCEP was added, and the mixture was incubated at 37° C. for 30 minutes. The fluorescence intensity of each solution was then measured with a plate reader (Infinite(R) 200 PRO, excitation wavelength: 485 nm, fluorescence wavelength: 535 nm).

## N[C@@H](C[Se][Se]C[C@H](N)C(=O)O)C(=O)O [selenocystine]
Cystine transporter
  route of selenocystine uptake: taken through cystine transporter
HeLa cells
  fluorescence intensity (selenocystine taken up by the cells): increased depending on the concentration of selenocystine
